Read-outs that look alike come from different tables or passages of the source.
Columns and labels:
UreG dimers = target: T1, UreG dimers (Helicobacter pylori, UniProt Q09066); experiment: Nickel uptake assay (dialysis, atomic absorption spectroscopy); format: biochemical; details: 25, 50 and 100 μM coptisine, 2.5 μM UreG dimer, versus control, all p < 0.01
T1 construct: HisSUMO (N, cleaved yes); made in house; host or cells: Escherichia coli
Experimental: UreG dimers were obtained using GTPγS as described previously. Briefly, the UreG dimer was purified by incubating apo-UreG at 3 mg/mL on ice with 1 mM GTP, 2 mM MgSO4, and 0.5 mM NiSO4 for 15 min. Nickel-charged UreG dimers were then separated from excess GTP and nickel using a Sephadex G25 desalting column. UreG dimers (2.5 μM) were injected into dialysis bag (6–8 kDa) and mixed with different concentrations of coptisine (25, 50, or 100 μM) or DMSO (control). The dialysis bag was sealed and placed in beakers containing UreG dimer buffer at 37 °C in a water bath. After 30 min, dialysis bags were placed in fresh buffer and the sample was incubated for 2 h at 4 °C with continuous shaking to initiate dialysis. The dialysis process was repeated three times. Samples were then removed and nickel concentrations were measured using atomic absorption spectroscopy (AA-7000, SHIMADZU). Nickel concentration was determined by comparing measurements against a standard curve of known nickel concentrations.

H. pylori strains = experiment: Minimal inhibitory concentration assay (agar dilution); format: cell-based, Helicobacter pylori
From the text: Fourteen H. pylori strains were used in this study. NCTC 11637 and NCTC 26695 strains were purchased from American Type Culture Collection. Sydney Strain-1 (SS1) was kindly provided by Prof. Richard Ferrero of Monash University, Australia. Clinical isolate ICDC 111001 was provided by Prof. Zhang Jian-zhong of the Chinese Center for Disease Control and Prevention, China. Ten clinical isolates (Hp1868, Hp1869, Hp1870, Hp1871, Hp1872, Hp1873, Hp1874, Hp1875, Hp1876, and Hp1877) were obtained from Renji Hospital, Shanghai Jiaotong University.
All strains were cultured in Columbia agar base containing 7% sheep blood at 37 °C in a micro-aerophilic environment (5% O2, 10% CO2, and 85% N2). After 3 days, H. pylori was scraped and suspended in phosphate buffered saline (PBS). Turbidimetry was employed to adjust the concentrations of different H. pylori strains (turbidity equivalent to 1.0 McFarland standard). Crude HPU was obtained according to the method described by Matsubara et al.[42]
In this study, different concentrations (12.5, 25, 50, and 100 μg/mL) of berberine, palmatine, epiberberine, jatrorrhizine, and coptisine were used to evaluate antimicrobial activity against the standard H. pylori strain NCTC 11637. The agar dilution method was then used to analyse the antibacterial effects of coptisine against two H. pylori standard strains (SS1 and NCTC 26695) and eleven clinical isolates (ICDC 111001, HP 1868, HP 1869, HP 1870, HP 1871, HP 1872, HP 1873, HP 1874, HP 1875, HP 1876, and HP 1877). In this assay, 100 μL of H. pylori suspension (McFarland = 1.0) was added to the test compound-containing or DMSO-containing (control) Columbia blood agar plate. CLR and MET were used as positive controls in this experiment. Minimum inhibitory concentration (MIC) was defined as the lowest concentration at which no strain growth was observed by visual examination after 3 days. This experiment was repeated twice.

UreG dimer = target: T2, UreG dimer (Helicobacter pylori, UniProt Q09066); experiment: UreG dimer formation inhibition assay (size exclusion chromatography); format: biochemical; details: 500 μM coptisine, 300 μM GTP, 5 μM UreG monomer, 2.5 μM NiSO4, 60 min
T2 construct: HisSUMO (N, cleaved yes); made in house; host or cells: Escherichia coli
Experimental: Size exclusion chromatography technology was used to analyse the effects of coptisine on UreG dimer formation. Experiment was carried out in the buffer containing 5 μM UreG monomer and 2.5 μM NiSO4, and divided into the following three groups: 300 μM GTP (positive control), buffer A (negative control), and 300 μM GTP +500 μM coptisine. After reaction for 60 min, samples were then injected into a Superdex 75 analytical gel filtration column pre-equilibrated with buffer A.

jack bean urease (JBU) [1] = target: T3, jack bean urease (JBU) (Canavalia ensiformis, UniProt P07374); experiment: Determination of urease inhibition type (Lineweaver-Burk plots); format: biochemical
T3 construct: purchased Sigma Aldrich (Steineheim, Germany) type III (catalogue number not given)
Experimental: (§1) Using the methods described above, the type of enzyme inhibition induced by coptisine was determined by examining changes in the Michaelis constant (KM) and maximum velocity (vmax) values from Lineweaver–Burk plots of 1/v versus 1/urea. The inhibition constant was determined using secondary plots of the apparent KM/vmax or 1/vmax versus the concentration of coptisine. The assays were performed in triplicate.

H. pylori urease (HPU) [2] = target: T4, H. pylori urease (HPU) (Helicobacter pylori, UniProt P69996); experiment: as above; format: biochemical
T4 construct: Crude HPU was obtained according to the method described by Matsubara et al; endogenous in cells; host or cells: cultured Helicobacter pylori (strain not specified)
Experimental: as §1

jack bean urease (JBU) [3] = target: T3, jack bean urease (JBU); experiment: Progress curve analysis; format: biochemical; details: 0.63, 1.25 and 2.50 mM Cop, non-pre-incubated and pre-incubated systems
Experimental: (§2) Reaction progress curves for urea hydrolysis in the non-pre-incubated and pre-incubated systems were generated by plotting the concentration of ammonia generated as a function of the incubation time P(t) in the absence or presence of coptisine. Coptisine and urease were mixed immediately before the reaction in the non-pre-incubated system and were mixed and incubated for 20 min before urea was added to initiate the reaction in the pre-incubated system. Urease activity relative to the standard assay was determined at different time intervals.

H. pylori urease (HPU) [4] = target: T4, H. pylori urease (HPU); experiment: Progress curve analysis; format: biochemical; details: 0.63, 1.25 and 2.50 mM Cop, non-pre-incubated and pre-incubated systems
Experimental: as §2

[5] = Lineweaver-Burk plots, 1.00, 2.00 or 4.00 mM Cop

T4 sequence (P69996 whole entry): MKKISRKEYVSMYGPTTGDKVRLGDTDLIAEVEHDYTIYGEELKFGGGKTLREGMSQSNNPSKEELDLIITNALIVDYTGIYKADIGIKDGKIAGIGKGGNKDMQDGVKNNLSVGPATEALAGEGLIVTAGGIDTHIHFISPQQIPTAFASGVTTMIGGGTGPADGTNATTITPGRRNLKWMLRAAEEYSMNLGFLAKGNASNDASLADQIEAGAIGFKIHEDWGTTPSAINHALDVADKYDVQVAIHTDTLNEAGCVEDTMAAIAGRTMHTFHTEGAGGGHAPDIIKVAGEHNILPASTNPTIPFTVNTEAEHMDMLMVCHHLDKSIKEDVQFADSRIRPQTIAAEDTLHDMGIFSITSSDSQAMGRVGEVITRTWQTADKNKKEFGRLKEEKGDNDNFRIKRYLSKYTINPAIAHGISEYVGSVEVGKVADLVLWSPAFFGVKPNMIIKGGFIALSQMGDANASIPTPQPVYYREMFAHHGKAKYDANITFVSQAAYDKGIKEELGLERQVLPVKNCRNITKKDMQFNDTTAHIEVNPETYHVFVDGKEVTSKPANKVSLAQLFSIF
T4 sequence (P14916 whole entry, further chain): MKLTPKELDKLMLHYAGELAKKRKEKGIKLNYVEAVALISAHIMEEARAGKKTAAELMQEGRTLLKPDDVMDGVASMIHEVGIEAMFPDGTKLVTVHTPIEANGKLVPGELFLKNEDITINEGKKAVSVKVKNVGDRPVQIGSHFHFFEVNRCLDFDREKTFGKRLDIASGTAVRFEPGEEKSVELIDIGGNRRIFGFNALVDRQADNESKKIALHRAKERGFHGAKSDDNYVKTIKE
T3 sequence (P07374 whole entry, looked up): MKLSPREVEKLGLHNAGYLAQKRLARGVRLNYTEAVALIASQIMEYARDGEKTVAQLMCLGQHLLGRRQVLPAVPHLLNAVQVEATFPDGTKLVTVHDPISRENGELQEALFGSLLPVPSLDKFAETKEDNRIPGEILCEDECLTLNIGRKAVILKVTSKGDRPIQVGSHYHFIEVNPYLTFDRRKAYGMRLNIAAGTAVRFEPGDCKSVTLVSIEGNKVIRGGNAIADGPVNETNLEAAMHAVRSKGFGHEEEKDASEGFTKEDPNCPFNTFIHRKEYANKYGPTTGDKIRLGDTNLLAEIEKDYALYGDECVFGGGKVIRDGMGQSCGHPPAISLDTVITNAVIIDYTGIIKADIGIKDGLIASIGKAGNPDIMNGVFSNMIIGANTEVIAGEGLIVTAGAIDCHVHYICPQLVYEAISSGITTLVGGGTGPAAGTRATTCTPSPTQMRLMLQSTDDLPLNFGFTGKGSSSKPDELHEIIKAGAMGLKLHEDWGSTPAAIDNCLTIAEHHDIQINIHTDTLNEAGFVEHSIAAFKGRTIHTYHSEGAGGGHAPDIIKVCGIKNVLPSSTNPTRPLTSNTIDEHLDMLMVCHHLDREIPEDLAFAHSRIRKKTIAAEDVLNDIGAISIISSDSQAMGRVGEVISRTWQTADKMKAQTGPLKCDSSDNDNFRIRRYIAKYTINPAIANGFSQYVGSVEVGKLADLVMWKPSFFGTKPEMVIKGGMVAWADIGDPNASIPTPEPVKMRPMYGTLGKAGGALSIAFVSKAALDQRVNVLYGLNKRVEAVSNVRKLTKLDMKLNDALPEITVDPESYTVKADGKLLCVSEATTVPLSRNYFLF
T2 sequence (Q09066 whole entry): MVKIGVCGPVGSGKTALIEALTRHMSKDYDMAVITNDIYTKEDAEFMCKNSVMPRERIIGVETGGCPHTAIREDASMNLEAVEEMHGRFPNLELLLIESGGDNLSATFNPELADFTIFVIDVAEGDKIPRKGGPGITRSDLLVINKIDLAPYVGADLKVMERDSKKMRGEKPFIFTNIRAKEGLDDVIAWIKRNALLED
T1 sequence (Q09066 whole entry): as above

c1c2c(cc3c1OCO3)-c1cc3ccc4c(c3c[n+]1CC2)OCO4 [Coptisine]
bound nickel concentrations of UreG dimers (UreG dimers): markedly decreased | MIC (H. pylori strains; Helicobacter pylori, NCTC11637, pH 7.2, standard strain NCTC 11637, pH 7.2): 25 µg/mL | MIC (H. pylori strains; Helicobacter pylori, NCTC26695, strain NCTC 26695, pH = 7.2): 25 µg/mL | MIC (H. pylori strains; Helicobacter pylori, clinical isolate HP 1868, pH = 7.2): 50 µg/mL | MIC (H. pylori strains; Helicobacter pylori, clinical isolate HP 1869 (MET resistance), pH = 7.2): 50 µg/mL | MIC (H. pylori strains; Helicobacter pylori, clinical isolate HP 1870 (CLR and MET resistance), pH = 7.2): 25 µg/mL | MIC (H. pylori strains; Helicobacter pylori, clinical isolate HP 1871 (MET resistance), pH = 7.2): 25 µg/mL | MIC (H. pylori strains; Helicobacter pylori, clinical isolate HP 1872, pH = 7.2): 25 µg/mL | MIC (H. pylori strains; Helicobacter pylori, clinical isolate HP 1873, pH = 7.2): 50 µg/mL | MIC (H. pylori strains; Helicobacter pylori, clinical isolate HP 1874, pH = 7.2): 50 µg/mL | MIC (H. pylori strains; Helicobacter pylori, clinical isolate HP 1875, pH = 7.2): 50 µg/mL | MIC (H. pylori strains; Helicobacter pylori, clinical isolate HP 1876 (CLR and MET resistance), pH = 7.2): 50 µg/mL | MIC (H. pylori strains; Helicobacter pylori, clinical isolate HP 1877, pH = 7.2): 50 µg/mL | MIC (H. pylori strains; Helicobacter pylori, clinical isolate ICDC 111001, pH = 7.2): 25 µg/mL | MIC (H. pylori strains; Helicobacter pylori, read-out: MICs against eleven clinical isolates, eleven clinical isolates from three sites in China): 25 to 50 µg/mL | MIC (H. pylori strains; Helicobacter pylori, strain SS1, pH = 7.2): 25 µg/mL | MIC (H. pylori strains; clinical isolate HP 1869 (MET resistance), pH = 7.2): 50 µg/mL | MIC (H. pylori strains; clinical isolate HP 1870 (CLR and MET resistance), pH = 7.2): 25 µg/mL | MIC (H. pylori strains; clinical isolate HP 1871 (MET resistance), pH = 7.2): 25 µg/mL | MIC (H. pylori strains; clinical isolate HP 1876 (CLR and MET resistance), pH = 7.2): 50 µg/mL | MIC (H. pylori strains; standard strain NCTC 11637, pH 7.2): 25 µg/mL | MIC (H. pylori strains; strain NCTC 26695, pH = 7.2): 25 µg/mL | MIC (H. pylori strains; strain SS1, pH = 7.2): 25 µg/mL | UreG dimerisation (UreG dimer): obviously inhibited | Ki (jack bean urease (JBU) [1]): 170 µM | inhibition type, JBU (jack bean urease (JBU) [1]; [5]): non-competitively inhibits | Kis, JBU (jack bean urease (JBU) [1]; from intercept versus Cop concentration): 0.25 mM | Ki (H. pylori urease (HPU) [2]): 50 µM | inhibition type, HPU (H. pylori urease (HPU) [2]; [5]): mixed-type inhibitor | Kis (binding to the enzyme substrate complex), HPU (H. pylori urease (HPU) [2]; from vertical intercept versus inhibitor concentration): 1.48 mM | binding behaviour from reaction progress curves, JBU (jack bean urease (JBU) [3]): slow-binding inhibition | binding behaviour from reaction progress curves, HPU (H. pylori urease (HPU) [4]): slow-binding inhibition
